Results reported in ChEMBL document CHEMBL3286197, “Synthesis and structure-activity relationship of cyclopentenone oximes as novel inhibitors of the production of tumor necrosis factor-α” (Bioorg Med Chem Lett, 2014).

Experiments:
[1] = test system: PBMC; assay: Inhibition of LPS-induced TNF-alpha production in rat PBMC
[2] = test system: PBMC; assay: Inhibition of LPS-induced TNF-alpha production in human PBMC; assay type: functional, cell-based

CCCC1=C(c2ccc(F)c(F)c2)/C(=N/O)CC1
IC50 [1]: 720 nM

O/N=C1\CCC(C2CCCC2)=C1c1cccc(O)c1
IC50 [1]: 6220 nM

CCC1=C(c2ccc(F)c(F)c2)/C(=N/O)CC1
IC50 [1]: 4560 nM

CCCCCC1=C(c2ccc(F)cc2)/C(=N/O)CC1
IC50 [2]: 4590 nM | IC50 [1]: 3830 nM

CCCCC1=C(c2ccc(F)cc2)/C(=N/O)CC1
IC50 [1]: 7880 nM

COc1ccc(C2CNC(=O)C2)cc1OC1CCCC1 (configuration not stated) [ROLIPRAM]
IC50 [2]: 270 nM | IC50 [1]: 270 nM

O/N=C1\CCC(C2CCCCC2)=C1c1ccc(F)c(F)c1
IC50 [1]: 340 nM

CCCCCC1=C(c2cccnc2)/C(=N/O)CC1
IC50 [1]: 14100 nM

CCCC1=C(c2ccc(F)cc2)/C(=N/O)CC1
IC50 [1]: 2660 nM

O/N=C1\CCC(C2CCCC2)=C1c1cccc(C(F)(F)F)c1
IC50 [1]: 3070 nM

CCCCCC1=C(c2ccc(F)c(F)c2)/C(=N/O)CC1
IC50 [1]: 3650 nM

O/N=C1\CCC(C2CCCCC2)=C1c1ccc(F)cc1
IC50 [1]: 1240 nM

O/N=C1\CCC(C2CCCC2)=C1c1ccc2c(c1)OCO2
IC50 [1]: 350 nM

CC1=C(c2ccc(F)c(F)c2)/C(=N/O)CC1
IC50 [1]: 48700 nM

O/N=C1\CCC(C2CCCC2)=C1c1ccc(F)cc1
IC50 [1]: 460 nM

O/N=C1\CCC(C2CCCC2)=C1c1ccc(F)c(F)c1
IC50 [2]: 260 nM | IC50 [1]: 130 nM

CCCCC1=C(c2ccc3c(c2)OCO3)/C(=N/O)CC1
IC50 [2]: 2920 nM | IC50 [1]: 2520 nM

O/N=C1\CCC(C2CCCCC2)=C1c1ccc(F)c(Cl)c1
IC50 [1]: 420 nM
